Publication PMC10044445, “Tuning the Anthranilamide Peptidomimetic Design to Selectively Target Planktonic Bacteria and Biofilm” (Antibiotics, 2023)
Converted amounts (≈) assume the structure as drawn. Like-named read-outs stand apart in the source and are kept apart here.

Experiments:
[1] = tested on: E. coli biofilms; assay: Disruption of established biofilm, crystal violet staining; format: cell-based; conditions: 24 h treatment; for disruption of established E. coli biofilm (in words): 1× to 8× MIC
Method: (§1) Bacteria in biofilms are 10–1000 times more resistant to conventional antibiotics than planktonic bacteria. Moreover, biofilms are insensitive to antiseptics and many host immune responses. Since up to 80% of all microbial infections are biofilm-related, an effective antibacterial agent should also be able to disrupt established biofilms to tackle bacterial infections.
(§2) Bacterial cultures (S. aureus and E. coli) were grown in MHB media overnight at 37 °C with shaking at 120 rpm. Cultures were diluted (1:20) in an MHB medium and 200 μL aliquots were dispensed to flat bottom 96-well plate wells (Sarstedt, Mawson Lakes, Australia). Cultures were supplemented with varying concentrations of synthetic compounds dissolved in DMSO. Biofilm was grown in a 96-well plate for 24 h followed by the addition of synthetic compounds and incubated further for 24 h. Plates were sealed with self-adhesive microplate sealers (TopSeal-A, PerkinElmer) to allow air diffusion and to prevent condensation. Biofilms adhered on polystyrene substratum were quantified by crystal violet staining as described previously. The experiment was performed in triplicate.
Figure 5 Disruption of established biofilm of E. coli after 24 h treatment with 1× to 8× MIC concentrations of compounds 13d, 16b, 19a, and 19b. The negative control represents pre-established biofilms without any compounds. Error bars indicate the standard error of the mean (SEM) of three independent experiments.

[2] = tested on: Bacillus subtilis strain BS23; assay: Membrane integrity study, epifluorescence microscopy (atpA-GFP); format: cell-based; conditions: 50 μM, 45 min
Method: The mechanism of action of compounds 16b, 19a, and […] was further studied using Bacillus subtilis strain BS23, which contains a fusion of green fluorescence protein (GFP) to the α-subunit of the membrane-localized ATP synthase. In the assay, if the compounds damage the membrane, the green fluorescence will change from a uniform distribution to a clustered distribution. Epifluorescence microscopy was used to image the changes in the cells.
Bacillus subtilis BS23 (atpA-GFP) was grown in LB (10 g/L Tryptone, 5 g/L Yeast Extract, 5 g/L NaCl) supplemented with 0.5% (w/v) xylose at 37 °C, to an OD600 of 0.3 and then treated with 50 μM of the AMP mimics, 10 μg/mL of colistin or 0.25% (v/v) DMSO (vehicle control). The cells were grown for a further 45 min before being examined by epifluorescence microscopy. Micrographs were background subtracted, merged, and aligned in images.
Figure 3 Epifluorescence microscopy images showing membrane integrity of B. subtilis strain BS23 treated with colistin (10 µg/mL) and compounds 16b, 19a, and 19b (50 µM).

[3] = tested on: S. aureus biofilms; assay: Disruption of established biofilm, crystal violet staining; format: cell-based; conditions: 24 h treatment
Method: as §1, §2
Figure 4 Disruption of established biofilms of S. aureus after 24 h treatment with 1× to 8× MIC concentrations of compounds 13d, 16b, 19a, 19b. The positive control represents the pre-established biofilms without any compounds. Error bars indicate the standard error of the mean (SEM) of three independent experiments.

[4] = tested on: E. coli; assay: Minimum inhibitory concentration, broth microdilution (CLSI); format: cell-based, Escherichia coli; conditions: for MIC90 / MIC: Escherichia coli; for improvement in antibacterial activity against E. coli compared to the parent compound: versus parent 12a, 12j
Method: (§3) The antimicrobial activity of the compounds was evaluated by a broth microdilution assay using the procedure described by CLSI. Briefly, bacteria were grown to mid-log phase in Muller Hinton broth (MHB) with shaking at 120 rpm and incubated at 37 °C for 12–16 h. Following incubation, bacteria were washed three times in PBS pH 7.4 at 3500 g for 10 min. After washing, bacteria were diluted with fresh MHB. The turbidity of the bacterial suspensions was adjusted so that OD660nm was 0.1, which gave 1 × 10^8 CFU/mL, and then further diluted to achieve 5 × 10^5 CFU/mL as a final bacterial concentration. Each compound was diluted (250–3.9 µM) through two-fold dilution. Wells in microtiter plates were loaded with 100 µL of inoculum containing 5 × 10^5 CFU/mL bacteria. Wells without any compound and containing only bacteria were used as negative controls (i.e., no inhibition of growth). Wells with media only were set as blank. The microtiter plate was wrapped with paraffin to prevent evaporation and incubated with shaking at 120 rpm and 37 °C for 18–24 h. After incubation, spectrophotometric readings were taken. The well without any bacterial growth and showing zero spectrophotometric reading was regarded as the MIC of the compounds.

[5] = tested on: S. aureus; assay: as above; format: cell-based, Staphylococcus aureus; conditions: for MIC90: broth microdilution in MHB, 18–24 h; for MIC: Table 2, lysine derivative versus parent, read-out: MIC S. aureus
Method: as §3

[6] = tested on: MRC-5 human fibroblasts; assay: Toxicity assay, Alamar Blue; format: cell-based; conditions: for IC50: MRC5, MRC-5 human fibroblasts, 72 h drug incubation, Alamar Blue
Method: Normal human lung fibroblasts MRC-5 were cultured in minimal essential medium (MEM, Invitrogen) supplemented with 10% foetal calf serum (FCS), 1% L-glutamine–penicillin–streptomycin, 2% sodium bicarbonate, 1% non-essential amino acids (NEAA), and 1% sodium pyruvate. The cell line was maintained at 37 °C in 5% CO2 as an adherent monolayer and was passaged upon reaching confluence by standard cell culture techniques. MRC-5 cells were seeded at 2 × 10^4 cells per well in 96-well plates to ensure full confluence (quiescence). Cells were treated for 24 h after seeding with 0.1 to 1000 μM of compounds. After 72 h of drug incubation, the treated media was replaced with fresh media containing 10% Alamar Blue and the cells were incubated for another 6 h. The metabolic activity was detected by spectrophotometric analysis by assessing the absorbance of Alamar blue as previously described by Pasquier et al. Cell proliferation was determined and expressed as a percentage of untreated control cells. The determination of IC50 values was performed using GraphPad Prism 6 (San Diego, CA, USA). Each experiment was performed in triplicate and was repeated in three independent experiments.

[7] = tested on: E. coli K12; assay: Cytoplasmic membrane permeability (depolarization) assay with DiSC3(5); format: cell-based; conditions: 2× MIC
Method: (§4) Compounds 13d (series I), 16b (series II), 19a (series III) and 19b (series III) were selected as representative examples of each series with strong antibacterial activities (particularly against S. aureus). As AMPs are known to be membrane-targeting, membrane permeability assays are frequently used to confirm the mode of action of peptidomimetics. In this assay, S. aureus and E. coli were treated with the active compounds in the presence of the membrane potential-sensitive cyanine dye 3,3′-dipropylthiadicarbocyanine iodide (DiSC3(5)). Perturbation of the membrane by the compounds leads to loss of the membrane potential gradient (depolarization), causing the dye to be released into the medium and resulting in an increase in fluorescence intensity.
(§5) The method was adopted from Wu et al. with slight modifications. Bacterial cytoplasmic membrane permeability was determined using membrane potential sensitive dye diSC3-5 (3,3′-dipropylthiadicarbocyanine iodide) which penetrates inside bacterial cells depending on the membrane potential gradient of the cytoplasmic membrane. Bacteria were grown in MHB to mid-log phase by incubating with shaking at 37 °C for 18–24 h. Following incubation, bacteria were washed with 5 mM HEPES containing 20 mM glucose pH 7.2 and resuspended in the same buffer to an OD600 0.05–0.06 which gave 1 × 10^7 CFU/mL. The dye diSC3-5 was added at 4 µM to the bacterial suspension. The suspensions were incubated at room temperature for 1 h in the dark for maximum dye take-up by the bacterial cells. Then, 100 mM KCl was added to balance the K+ outside and inside the bacterial cell to prevent further uptake or outflow of the dye. For Gram-negative bacteria, 0.5 mM EDTA was used to destabilize the lipopolysaccharides-Mg^2+-Ca^2+ complex to help in dye penetration without affecting bacterial growth. A total of 100 µL of bacterial suspension was added to 96-well microtiter plate and with equal volume of antimicrobial compounds. DMSO (20%) was set as a positive control while dye and only bacterial cells were set as a negative control. Fluorescence was measured with a luminescence spectrophotometer at 3 min intervals at an excitation wavelength of 622 nm and an emission wavelength of 670 nm.
(§6) Figure 2 Cytoplasmic membrane depolarization of S. aureus 38 and E. coli K12 by 13d, 16b, 19a, 19b, as assessed by release of the membrane potential-sensitive dye DiSC3(5) measured spectroscopically at λex = 622 nm and λem = 670 nm at 2× MIC concentration. Data are presented as means (±SD) of three independent repeats. 20% DMSO was used as a positive control.

[8] = tested on: S. aureus 38; assay: as above; format: cell-based; conditions: 2× MIC
Method: as §4, §5, §6

[9] = broth microdilution in MHB, 18–24 h
[10] = Table 2, lysine derivative versus parent, read-out: MIC E. coli

Row | SMILES | disruption of established E. coli biofilm (in words) [1] | membrane damage (clustering of GFP fluorescence) [2] | disruption of established S. aureus biofilm ([3]; 4× MIC (15.6 µM)) | MIC90 [4, 9] | MIC90 ([5]; Staphylococcus aureus) | IC50 [6] | cytoplasmic membrane depolarization (DiSC3(5) release) [7] | disruption of established S. aureus biofilm ([3]; 2× MIC (31.2 µM)) | disruption of established S. aureus biofilm ([3]; 8× MIC (125 µM)) | MIC [4, 10] | improvement in antibacterial activity against E. coli compared to the parent compound [4] | MIC ([5]; Staphylococcus aureus) | disruption of E. coli biofilm mass ([1]; 2× MIC (62.4 µM)) | cytoplasmic membrane depolarization (DiSC3(5) release) [8] | MIC90 [5] | therapeutic window: IC50 to human cells over MIC90 ([6]; IC50 MRC-5 versus MIC90 for either S. aureus or E. coli) | MIC ([4]; broth microdilution in MHB, 18–24 h, read-out: MIC90 E. coli) | toxicity to mammalian cells (in words) ([6]; at 31.2 µM)
1 | NCCNC(=O)[C@H](Cc1c[nH]c2ccccc12)NC(=O)c1cc(-c2ccc3ccccc3c2)ccc1N [Compound 16b, (S)-2-amino-N-(1-((2-aminoethyl)amino)-3-(1H-indol-3-yl)-1-oxopropan-2-yl)-5-(naphthalen-2-yl)benzamide] | not effective | caused membrane damage | 93% | 31.2 µM (≈ 15.3 µg/mL) | 3.9 µM (≈ 1.92 µg/mL) | 24.6 µM | – | – | – | – | – | – | – | – | – | – | – | –
2 | NCCNC(=O)[C@H](Cc1c[nH]c2ccccc12)NC(=O)c1cc(-c2ccc(F)cc2)ccc1N [Compound 16c, (S)-4-amino-N-(1-((2-aminoethyl)amino)-3-(1H-indol-3-yl)-1-oxopropan-2-yl)-4′-fluoro-[1,1′-biphenyl]-3-carboxamide] | – | – | – | > 125 µM | 31.2 µM (≈ 14.3 µg/mL) | 34 µM | – | – | – | – | – | – | – | – | – | – | – | –
3 | NCCCC[C@H](N)C(=O)NCCNC(=O)[C@H](Cc1c[nH]c2ccccc12)NC(=O)c1cc(Br)ccc1NC(=O)c1ccc2ccccc2c1 [Compound 19a, N-(4-bromo-2-(((S)-1-((2-((S)-2,6-diaminohexanamido)ethyl)amino)-3-(1H-indol-3-yl)-1-oxopropan-2-yl)carbamoyl)phenyl)-2-naphthamide] | not effective | caused membrane damage | – | 15.6 µM (≈ 11.3 µg/mL) | 15.6 µM (≈ 11.3 µg/mL) | 83.9 µM | greater membrane disruption in E. coli than in S. aureus | over 60% | ~99% | 15.6 µM (≈ 11.3 µg/mL) | > 16 fold | 15.6 µM (≈ 11.3 µg/mL) | – | – | – | – | – | –
4 | NCCCC[C@H](N)C(=O)NCCNC(=O)[C@H](Cc1c[nH]c2ccccc12)NC(=O)c1cc(Br)ccc1NC(=O)c1cccc(-c2ccccc2)c1 [Compound 19b, N-(4-bromo-2-(((S)-1-((2-((S)-2,6-diaminohexanamido)ethyl)amino)-3-(1H-indol-3-yl)-1-oxopropan-2-yl)carbamoyl)phenyl)-[1,1′-biphenyl]-3-carboxamide] | significant disruption | caused membrane damage | – | 15.6 µM (≈ 11.7 µg/mL) | 15.6 µM (≈ 11.7 µg/mL) | 164 µM | – | over 60% | ~99% | 15.6 µM (≈ 11.7 µg/mL) | – | 15.6 µM (≈ 11.7 µg/mL) | little effect | reversed trend | 15.6 µM (≈ 11.7 µg/mL) | over 10 times | – | –
5 | NCCCC[C@H](N)C(=O)NCCNC(=O)[C@H](Cc1c[nH]c2ccccc12)NC(=O)c1cc(Br)ccc1NC(=O)c1ccc(-c2ccccc2)cc1 [Compound 19c, N-(4-bromo-2-(((S)-1-((2-((S)-2,6-diaminohexanamido)ethyl)amino)-3-(1H-indol-3-yl)-1-oxopropan-2-yl)carbamoyl)phenyl)-[1,1′-biphenyl]-4-carboxamide] | – | – | – | 62.5 µM (≈ 47 µg/mL) | 15.6 µM (≈ 11.7 µg/mL) | 150 µM | – | – | – | 62.5 µM (≈ 47 µg/mL) | > 16 fold | 15.6 µM (≈ 11.7 µg/mL) | – | – | – | – | 15.6 µM (≈ 11.7 µg/mL) | non-toxic
